{"source": "patent US20240239752A1", "about": "“BICYCLIC HETEROAROMATIC INHIBITORS OF KLK5” (BioCryst Pharmaceuticals, Inc., priority 2021, published 2024)", "data": [{"biological_target": "T1, recombinant human KLK5 (Homo sapiens, UniProt Q9Y337)", "T1 construct": "purchased Novoprotein or R&D Systems C415 or 1108-SE", "T1 sequence (Q9Y337 23-293)": "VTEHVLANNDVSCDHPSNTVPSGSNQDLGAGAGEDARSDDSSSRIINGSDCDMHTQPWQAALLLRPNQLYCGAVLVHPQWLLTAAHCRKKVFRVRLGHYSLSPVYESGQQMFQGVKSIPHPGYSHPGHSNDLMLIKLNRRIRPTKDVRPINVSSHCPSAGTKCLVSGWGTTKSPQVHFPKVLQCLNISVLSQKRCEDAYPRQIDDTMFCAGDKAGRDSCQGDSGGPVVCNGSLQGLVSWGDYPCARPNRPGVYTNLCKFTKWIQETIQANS", "test": "Kallikrein (KLK) 5 enzymatic assay (Boc-VPR-AMC fluorogenic substrate)", "type": "biochemical", "conditions": "recombinant human KLK5 0.1 μg/well, Boc-VPR-AMC 100 μM, pH 7.5, room temperature, 1% DMSO; tested a minimum of three times", "how_it_was_run": "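Fluorogenic rate assay at pH 7.5 (0.1 M NaH2PO4, 1% DMSO, room temperature), run at least three times per compound. Compound was premixed with 0.1 μg/well recombinant human KLK5 before adding 100 μM Boc-VPR-AMC; AMC release was read at ex 380/em 460 nm, and IC50 derived from inhibition of rate vs DMSO control.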", "units": {"IC50": "µM"}, "values": [{"compound": "Nc1nccc2ccc(-c3ccc4nn(C5CCC5)c(COc5cc(OC(F)(F)F)ccc5CC(=O)O)c4c3)cc12", "note": "[Compound 153d, 2-(2-((5-(1-aminoisoquinolin-7-yl)-2-cyclobutyl-2H-indazol-3-yl)methoxy)-4-(trifluoromethoxy)phenyl)acetic acid]", "IC50": "> 10"}, {"compound": "Nc1nccc2c(-c3ccc4nn(C5CCC5)c(COc5cc(OC(F)(F)F)ccc5CC(=O)O)c4c3)cccc12", "note": "[Compound 154b, 2-(2-((5-(1-aminoisoquinolin-5-yl)-2-cyclobutyl-2H-indazol-3-yl)methoxy)-4-(trifluoromethoxy)phenyl)acetic acid]", "IC50": "1 to 10"}, {"compound": "Cc1ccc(OCc2c3cc(-c4ccc5ccnc(N)c5c4)ccc3nn2C2CCC2)c(CC(=O)O)c1", "note": "[Compound 155d, 2-(2-((5-(1-aminoisoquinolin-7-yl)-2-cyclobutyl-2H-indazol-3-yl)methoxy)-5-methylphenyl)acetic acid]", "IC50": "1 to 10"}, {"compound": "Cc1ccc(OCc2c3cc(-c4cccc5c(N)nccc45)ccc3nn2C2CCC2)c(CC(=O)O)c1", "note": "[Compound 156b, 2-(2-((5-(1-aminoisoquinolin-5-yl)-2-cyclobutyl-2H-indazol-3-yl)methoxy)-5-methylphenyl)acetic acid]", "IC50": "1 to 10"}, {"compound": "COc1ccc(OCc2c3cc(-c4ccc5ccnc(N)c5c4)ccc3nn2C2CCC2)c(CC(=O)O)c1", "note": "[Compound 157d, 2-(2-((5-(1-aminoisoquinolin-7-yl)-2-cyclobutyl-2H-indazol-3-yl)methoxy)-5-methoxyphenyl)acetic acid]", "IC50": "1 to 10"}, {"compound": "COc1ccc(OCc2c3cc(-c4cccc5c(N)nccc45)ccc3nn2C2CCC2)c(CC(=O)O)c1", "note": "[Compound 158b, 2-(2-((5-(1-aminoisoquinolin-5-yl)-2-cyclobutyl-2H-indazol-3-yl)methoxy)-5-methoxyphenyl)acetic acid]", "IC50": "1 to 10"}, {"compound": "Cc1cccc(CC(=O)O)c1OCc1nn(C2CCC2)c2ccc(-c3ccc4ccnc(N)c4c3)cc12", "note": "[Compound 159g, 2-(2-((5-(1-aminoisoquinolin-7-yl)-1-cyclobutyl-1H-indazol-3-yl)methoxy)-3-methylphenyl)acetic acid]", "IC50": "1 to 10"}, {"compound": "Cc1cccc(CC(=O)O)c1OCc1nn(C2CCC2)c2ccc(-c3cccc4c(N)nccc34)cc12", "note": "[Compound 160b, 2-(2-((5-(1-aminoisoquinolin-5-yl)-1-cyclobutyl-1H-indazol-3-yl)methoxy)-3-methylphenyl)acetic acid]", "IC50": "1 to 10"}, {"compound": "Cc1cccc(OCc2nn(C3CCC3)c3ccc(-c4ccc5ccnc(N)c5c4)cc23)c1CC(=O)O", "note": "[Compound 161c, 2-(2-((5-(1-aminoisoquinolin-7-yl)-1-cyclobutyl-1H-indazol-3-yl)methoxy)-6-methylphenyl)acetic acid]", "IC50": "< 1"}, {"compound": "Cc1cccc(OCc2nn(C3CCC3)c3ccc(-c4cccc5c(N)nccc45)cc23)c1CC(=O)O", "note": "[Compound 162b, 2-(2-((5-(1-aminoisoquinolin-5-yl)-1-cyclobutyl-1H-indazol-3-yl)methoxy)-6-methylphenyl)acetic acid]", "IC50": "< 1"}, {"compound": "Cc1ccc(CC(=O)O)c(OCc2nn(C3CCC3)c3ccc(-c4cccc5c(N)nccc45)cc23)c1", "note": "[Compound 163c, 2-(2-((5-(1-aminoisoquinolin-5-yl)-1-cyclobutyl-1H-indazol-3-yl)methoxy)-4-methylphenyl)acetic acid]", "IC50": "< 1"}, {"compound": "Cc1ccc(OCc2nn(C3CCC3)c3ccc(-c4ccc5ccnc(N)c5c4)cc23)c(CC(=O)O)c1", "note": "[Compound 164c, 2-(2-((5-(1-aminoisoquinolin-7-yl)-1-cyclobutyl-1H-indazol-3-yl)methoxy)-5-methylphenyl)acetic acid]", "IC50": "1 to 10"}, {"compound": "Cc1ccc(OCc2nn(C3CCC3)c3ccc(-c4cccc5c(N)nccc45)cc23)c(CC(=O)O)c1", "note": "[Compound 165b, 2-(2-((5-(1-aminoisoquinolin-5-yl)-1-cyclobutyl-1H-indazol-3-yl)methoxy)-5-methylphenyl)acetic acid]", "IC50": "< 1"}, {"compound": "Nc1nccc2ccc(-c3ccc4c(c3)c(COc3ccc(F)cc3CC(=O)O)nn4C3CCC3)cc12", "note": "[Compound 166d, 2-(2-((5-(1-aminoisoquinolin-7-yl)-1-cyclobutyl-1H-indazol-3-yl)methoxy)-5-fluorophenyl)acetic acid]", "IC50": "< 1"}, {"compound": "Nc1nccc2c(-c3ccc4c(c3)c(COc3ccc(F)cc3CC(=O)O)nn4C3CCC3)cccc12", "note": "[Compound 167b, 2-(2-((5-(1-aminoisoquinolin-5-yl)-1-cyclobutyl-1H-indazol-3-yl)methoxy)-5-fluorophenyl)acetic acid]", "IC50": "< 1"}, {"compound": "Nc1nccc2c(-c3ccc4c(c3)c(COc3cc(F)ccc3CC(=O)O)nn4C3CCC3)cccc12", "note": "[Compound 168c, 2-(2-((5-(1-aminoisoquinolin-5-yl)-1-cyclobutyl-1H-indazol-3-yl)methoxy)-4-fluorophenyl)acetic acid]", "IC50": "< 1"}, {"compound": "COc1ccc(CC(=O)O)c(OCc2nn(C3CCC3)c3ccc(-c4cccc5c(N)nccc45)cc23)c1", "note": "[Compound 169c, 2-(2-((5-(1-aminoisoquinolin-5-yl)-1-cyclobutyl-1H-indazol-3-yl)methoxy)-4-methoxyphenyl)acetic acid]", "IC50": "< 1"}, {"compound": "COc1ccc(OCc2nn(C3CCC3)c3ccc(-c4ccc5ccnc(N)c5c4)cc23)c(CC(=O)O)c1", "note": "[Compound 170c, 2-(2-((5-(1-aminoisoquinolin-7-yl)-1-cyclobutyl-1H-indazol-3-yl)methoxy)-5-methoxyphenyl)acetic acid]", "IC50": "< 1"}, {"compound": "COc1ccc(OCc2nn(C3CCC3)c3ccc(-c4cccc5c(N)nccc45)cc23)c(CC(=O)O)c1", "note": "[Compound 171b, 2-(2-((5-(1-aminoisoquinolin-5-yl)-1-cyclobutyl-1H-indazol-3-yl)methoxy)-5-methoxyphenyl)acetic acid]", "IC50": "< 1"}, {"compound": "COc1cccc(OCc2nn(C3CCC3)c3ccc(-c4ccc5ccnc(N)c5c4)cc23)c1CC(=O)O", "note": "[Compound 172d, 2-(2-((5-(1-aminoisoquinolin-7-yl)-1-cyclobutyl-1H-indazol-3-yl)methoxy)-6-methoxyphenyl)acetic acid]", "IC50": "1 to 10"}, {"compound": "COc1cccc(OCc2nn(C3CCC3)c3ccc(-c4cccc5c(N)nccc45)cc23)c1CC(=O)O", "note": "[Compound 173b, 2-(2-((5-(1-aminoisoquinolin-5-yl)-1-cyclobutyl-1H-indazol-3-yl)methoxy)-6-methoxyphenyl)acetic acid]", "IC50": "< 1"}, {"compound": "CCOC(=O)Cc1cccc(C#N)c1OCc1nn(C2CCC2)c2ccc(Br)cc12", "note": "[Compound 174c, ethyl 2-(2-((5-bromo-1-cyclobutyl-1H-indazol-3-yl)methoxy)-3-cyanophenyl)acetate]", "IC50": "1 to 10"}, {"compound": "N#Cc1cccc(CC(=O)O)c1OCc1nn(C2CCC2)c2ccc(-c3cccc4c(N)nccc34)cc12", "note": "[Compound 175b, 2-(2-((5-(1-aminoisoquinolin-5-yl)-1-cyclobutyl-1H-indazol-3-yl)methoxy)-3-cyanophenyl)acetic acid]", "IC50": "1 to 10"}, {"compound": "Nc1nccc2ccc(-c3ccc4c(c3)c(COc3c(CC(=O)O)cccc3C(=O)O)nn4C3CCC3)cc12", "note": "[Compound 176a, 2-((5-(1-aminoisoquinolin-7-yl)-1-cyclobutyl-1H-indazol-3-yl)methoxy)-3-(carboxymethyl)benzoic acid]", "IC50": "< 1"}, {"compound": "Nc1nccc2c(-c3ccc4c(c3)c(COc3c(CC(=O)O)cccc3C(=O)O)nn4C3CCC3)cccc12", "note": "[Compound 177a, 2-((5-(1-aminoisoquinolin-5-yl)-1-cyclobutyl-1H-indazol-3-yl)methoxy)-3-(carboxymethyl)benzoic acid]", "IC50": "1 to 10"}]}]}
